Experimental data taken from ChEMBL document CHEMBL5723587, “Data for DCP probe BI-113823” (2024).

How the values were obtained:
[1] = molecular target: 5-hydroxytryptamine receptor 1B (Homo sapiens) (UniProt P28222); assay: 5-HT1B Eurofins-Cerep binding assay; design: ligand concentration 1 nM; details: Compound concentration 10.0 uM
[2] = molecular target: Cannabinoid receptor 1 (Homo sapiens) (UniProt P21554); assay: CB1 Eurofins-Cerep binding assay; details: Compound concentration 10.0 uM
[3] = molecular target: Prostaglandin G/H synthase 1 (Homo sapiens) (UniProt P23219); assay: Inhibitor of COX-1 in the Eurofins Cerep SafetyScreen44 (BI) by Fluorimetry (Cerep_4173); details: Compound concentration 10.0 uM
[4] = molecular target: Prostaglandin G/H synthase 2 (Homo sapiens) (UniProt P35354); assay: Inhibitor of COX-2 in the Eurofins Cerep SafetyScreen44 (BI) by Fluorimetry (Cerep_4186); details: Compound concentration 10.0 uM
[5] = molecular target: Kappa-type opioid receptor (Homo sapiens) (UniProt P41145); assay: kappa (KOP) Eurofins-Cerep binding assay; details: Compound concentration 10.0 uM
[6] = molecular target: 5-hydroxytryptamine receptor 1A (Homo sapiens) (UniProt P08908); assay: 5-HT1A Eurofins-Cerep binding assay; design: ligand concentration 0.5 nM; details: Compound concentration 10.0 uM
[7] = molecular target: 5-hydroxytryptamine receptor 2A (Homo sapiens) (UniProt P28223); assay: Agonist activity in the Eurofins Cerep SafetyScreen44 (BI) against 5HT2AH_AGON by Scintillation counting (Cerep_471); details: Compound concentration 10.0 uM
[8] = molecular target: 5-hydroxytryptamine receptor 2B (Homo sapiens) (UniProt P41595); assay: 5-HT2B Eurofins-Cerep binding assay; details: Compound concentration 10.0 uM
[9] = molecular target: 5-hydroxytryptamine receptor 3A (Homo sapiens) (UniProt P46098); assay: 5-HT3 Eurofins-Cerep binding assay; design: ligand concentration 0.5 nM; details: Compound concentration 10.0 uM
[10] = molecular target: Adenosine receptor A2a (Homo sapiens) (UniProt P29274); assay: A2A Eurofins-Cerep binding assay; design: ligand concentration 6 nM; details: Compound concentration 10.0 uM
[11] = molecular target: Angiotensin-converting enzyme (Homo sapiens) (UniProt P12821); assay: Activity against ACE(HU_AMTCH400) in the Eurofins Cerep SafetyScreen44 (BI) by Photometry (Cerep_3441); details: Compound concentration 10.0 uM
[12] = molecular target: Alpha-1A adrenergic receptor (Homo sapiens) (UniProt P35348); assay: Agonist activity in the Eurofins Cerep SafetyScreen44 (BI) against ALPHA1AH_ANTAG by Scintillation counting (Cerep_2338); details: Compound concentration 10.0 uM
[13] = molecular target: Alpha-2A adrenergic receptor (Homo sapiens) (UniProt P08913); assay: Inhibitor of ALPHA2A/HU in the Eurofins Cerep SafetyScreen44 (BI) by Radioactive Assay (Cerep_13); details: Compound concentration 10.0 uM
[14] = molecular target: Beta-1 adrenergic receptor (Homo sapiens) (UniProt P08588); assay: beta 1 Eurofins-Cerep binding assay; design: ligand concentration 0.3 nM; details: Compound concentration 10.0 uM
[15] = molecular target: Beta-2 adrenergic receptor (Homo sapiens) (UniProt P07550); assay: beta 2 Eurofins-Cerep binding assay; details: Compound concentration 10.0 uM
Rattus norvegicus [16] = species: Rattus norvegicus; assay: Activity against BZD/CENTR/R in the Eurofins Cerep SafetyScreen44 (BI) by Radioactive Assay (Cerep_28); format: protein-complex assay; details: Compound concentration 10.0 uM
[17] = molecular target: L-type calcium channel (dihydropyridine site), Cav1.2 alpha-1C (Rattus norvegicus, UniProt P22002); assay: Inhibitor of CA+/DHPSI/R in the Eurofins Cerep SafetyScreen44 (BI) by Radioactive Assay (Cerep_161); format: protein assay; design: scale not given: the % may be the effect or the level left; details: rat brain, probe [3H](+)PN200-110, compound concentration 10 uM, read-out: % Ctrl
[18] = molecular target: Cannabinoid receptor 2 (Homo sapiens) (UniProt P34972); assay: Activity against CB2/PERIPH/H in the Eurofins Cerep SafetyScreen44 (BI) by Radioactive Assay (Cerep_37); details: Compound concentration 10.0 uM
[19] = molecular target: Cholecystokinin receptor type A (Homo sapiens) (UniProt P32238); assay: CCK1 (CCKA) Eurofins-Cerep binding assay; design: ligand concentration 0.08 nM; details: Compound concentration 10.0 uM
[20] = molecular target: D(1A) dopamine receptor (Homo sapiens) (UniProt P21728); assay: D1 Eurofins-Cerep binding assay; design: ligand concentration 0.3 nM; details: Compound concentration 10.0 uM
[21] = molecular target: D(2) dopamine receptor (Homo sapiens) (UniProt P14416); assay: Agonist activity in the Eurofins Cerep SafetyScreen44 (BI) against D2SH_AGON by Scintillation counting (Cerep_1322); details: Compound concentration 10.0 uM
[22] = molecular target: Sodium-dependent dopamine transporter (Homo sapiens) (UniProt Q01959); assay: dopamine transporter Eurofins-Cerep binding assay; details: Compound concentration 10.0 uM
[23] = molecular target: Delta-type opioid receptor (Homo sapiens) (UniProt P41143); assay: delta (DOP) Eurofins-Cerep binding assay; design: ligand concentration 0.5 nM; details: Compound concentration 10.0 uM
[24] = molecular target: Endothelin-1 receptor (Homo sapiens) (UniProt P25101); assay: ETA Eurofins-Cerep binding assay; design: ligand concentration 0.03 nM; details: Compound concentration 10.0 uM
[25] = molecular target: Glucocorticoid receptor (Homo sapiens) (UniProt P04150); assay: GR Eurofins-Cerep binding assay; details: Compound concentration 10.0 uM
[26] = molecular target: Histamine H1 receptor (Homo sapiens) (UniProt P35367); assay: H1 Eurofins-Cerep binding assay; design: ligand concentration 1 nM; details: Compound concentration 10.0 uM
[27] = molecular target: Histamine H2 receptor (Homo sapiens) (UniProt P25021); assay: H2 Eurofins-Cerep binding assay; design: ligand concentration 0.075 nM; details: Compound concentration 10.0 uM
hERG (KCNH2) = hERG (KCNH2) (Homo sapiens, UniProt Q12809); assay: Inhibitor of HERG_DOFETILIDE in the Eurofins Cerep SafetyScreen44 (BI) by Scintillation counting (Cerep_4094); design: scale not given: the % may be the effect or the level left; details: probe [3H]dofetilide, compound concentration 10 uM, read-out: % Ctrl
Rattus norvegicus [28] = species: Rattus norvegicus; assay: KV channel Eurofins-Cerep binding assay; design: ligand concentration 0.01 nM; details: Compound concentration 10.0 uM
[29] = molecular target: Tyrosine-protein kinase Lck (Homo sapiens) (UniProt P06239); assay: Inhibitor of LCK_CE in the Eurofins Cerep SafetyScreen44 (BI) by lanthanide chelation excitation (Cerep_2906); details: Compound concentration 10.0 uM
[30] = molecular target: Muscarinic acetylcholine receptor M1 (Homo sapiens) (UniProt P11229); assay: M1 Eurofins-Cerep binding assay; design: ligand concentration 2 nM; details: Compound concentration 10.0 uM
[31] = molecular target: Muscarinic acetylcholine receptor M2 (Homo sapiens) (UniProt P08172); assay: M2 Eurofins-Cerep binding assay; design: ligand concentration 2 nM; details: Compound concentration 10.0 uM
[32] = molecular target: Muscarinic acetylcholine receptor M3 (Homo sapiens) (UniProt P20309); assay: M3 Eurofins-Cerep binding assay; design: ligand concentration 0.2 nM; details: Compound concentration 10.0 uM
[33] = molecular target: MAO-A (amine oxidase [flavin-containing] A) (Homo sapiens, UniProt P21397); assay: Agonist activity in the Eurofins Cerep SafetyScreen44 (BI) against MAO-A_ANTAG by Scintillation counting (Cerep_443); design: scale not given: the % may be the effect or the level left; details: rat; compound concentration 10 uM; target entry is the homologue from another species; read-out: % Ctrl
[34] = molecular target: Mu-type opioid receptor (Homo sapiens) (UniProt P35372); assay: mu (MOP) Eurofins-Cerep binding assay; design: ligand concentration 0.5 nM; details: Compound concentration 10.0 uM
[35] = molecular target: Sodium-dependent noradrenaline transporter (Homo sapiens) (UniProt P23975); assay: norepinephrine transporter Eurofins-Cerep binding assay; design: ligand concentration 1 nM; details: Compound concentration 10.0 uM
[36] = molecular target: Glutamate NMDA receptor (Rattus norvegicus) (UniProt P35439+Q00959+Q00960+Q00961+Q62645+Q8VHN2+Q9R1M7); assay: Inhibitor of NMDA/R in the Eurofins Cerep SafetyScreen44 (BI) by Radioactive Assay (Cerep_66); format: protein-complex assay; details: Compound concentration 10.0 uM
Homo sapiens = species: Homo sapiens; assay: Agonist activity in the Eurofins Cerep SafetyScreen44 (BI) against N_NEURO_A4B2 by Radioligand Binding (Cerep_3029); format: protein-complex assay; details: Compound concentration 10.0 uM
[37] = molecular target: cGMP-inhibited 3',5'-cyclic phosphodiesterase 3A (Homo sapiens) (UniProt Q14432); assay: Inhibitor of PDE3A in the Eurofins Cerep SafetyScreen44 (BI) by HTRF-homogeneous time resolved fluoresce (Cerep_4072); details: Compound concentration 10.0 uM
[38] = molecular target: 3',5'-cyclic-AMP phosphodiesterase 4D (Homo sapiens) (UniProt Q08499); assay: Inhibitor of PDE4D2 in the Eurofins Cerep SafetyScreen44 (BI) by Scintillation counting (Cerep_4077); details: Compound concentration 10.0 uM
[39] = molecular target: Sodium-dependent serotonin transporter (Homo sapiens) (UniProt P31645); assay: 5-HT transporter Eurofins-Cerep binding assay; design: ligand concentration 2 nM; details: Compound concentration 10.0 uM
[40] = molecular target: Vasopressin V1a receptor (Homo sapiens) (UniProt P37288); assay: V1a Eurofins-Cerep binding assay; design: ligand concentration 0.3 nM; details: Compound concentration 10.0 uM
B1 bradykinin receptor [41] = molecular target: T1, B1 bradykinin receptor (Homo sapiens, UniProt P46663); assay: Radioligand binding assay (displacement of kallidin, hBDKRB1 ) at 10 µM ( Non-specific binding is estimated in the presence of 10 µM Des-Arg9- (Leu8)-Bradykinin. Membranes are filtered and washed, the filters are then counted to determine [3H]Kallidin[des-Arg10, Leu9] specifically bound.); design: compound concentration 10 uM
T1 sequence (P46663 whole entry): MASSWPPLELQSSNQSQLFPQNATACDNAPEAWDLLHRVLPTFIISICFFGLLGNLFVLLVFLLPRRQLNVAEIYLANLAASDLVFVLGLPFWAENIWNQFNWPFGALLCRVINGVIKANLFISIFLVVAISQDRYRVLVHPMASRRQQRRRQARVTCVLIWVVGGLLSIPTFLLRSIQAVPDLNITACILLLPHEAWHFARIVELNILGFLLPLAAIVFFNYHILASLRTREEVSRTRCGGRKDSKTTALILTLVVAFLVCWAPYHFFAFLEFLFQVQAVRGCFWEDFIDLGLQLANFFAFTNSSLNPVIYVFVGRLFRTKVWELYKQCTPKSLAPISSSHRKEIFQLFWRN

B1 bradykinin receptor [42] = molecular target: T1, B1 bradykinin receptor; assay: Measurement of intracellular calcium in HEK-cells expressing hBDKRB1 at up to 1 µM ( The compound antagonizes the effects of the specific B1 agonist [Lys-des-Arg9 ]-Bradykinin (10 nM) in a concentration-dependent manner.); format: functional, cell-based; design: compound concentration < 1 uM
[43] = molecular target: Androgen receptor (Homo sapiens) (UniProt P10275); details: Compound concentration 10.0 uM
Description: Activity against ANDROGEN/H in the Eurofins Cerep SafetyScreen44 (BI) by Radioactive Assay (Cerep_933)

Chain of L-type calcium channel (dihydropyridine site), Cav1.2 alpha-1C (P22002 whole entry): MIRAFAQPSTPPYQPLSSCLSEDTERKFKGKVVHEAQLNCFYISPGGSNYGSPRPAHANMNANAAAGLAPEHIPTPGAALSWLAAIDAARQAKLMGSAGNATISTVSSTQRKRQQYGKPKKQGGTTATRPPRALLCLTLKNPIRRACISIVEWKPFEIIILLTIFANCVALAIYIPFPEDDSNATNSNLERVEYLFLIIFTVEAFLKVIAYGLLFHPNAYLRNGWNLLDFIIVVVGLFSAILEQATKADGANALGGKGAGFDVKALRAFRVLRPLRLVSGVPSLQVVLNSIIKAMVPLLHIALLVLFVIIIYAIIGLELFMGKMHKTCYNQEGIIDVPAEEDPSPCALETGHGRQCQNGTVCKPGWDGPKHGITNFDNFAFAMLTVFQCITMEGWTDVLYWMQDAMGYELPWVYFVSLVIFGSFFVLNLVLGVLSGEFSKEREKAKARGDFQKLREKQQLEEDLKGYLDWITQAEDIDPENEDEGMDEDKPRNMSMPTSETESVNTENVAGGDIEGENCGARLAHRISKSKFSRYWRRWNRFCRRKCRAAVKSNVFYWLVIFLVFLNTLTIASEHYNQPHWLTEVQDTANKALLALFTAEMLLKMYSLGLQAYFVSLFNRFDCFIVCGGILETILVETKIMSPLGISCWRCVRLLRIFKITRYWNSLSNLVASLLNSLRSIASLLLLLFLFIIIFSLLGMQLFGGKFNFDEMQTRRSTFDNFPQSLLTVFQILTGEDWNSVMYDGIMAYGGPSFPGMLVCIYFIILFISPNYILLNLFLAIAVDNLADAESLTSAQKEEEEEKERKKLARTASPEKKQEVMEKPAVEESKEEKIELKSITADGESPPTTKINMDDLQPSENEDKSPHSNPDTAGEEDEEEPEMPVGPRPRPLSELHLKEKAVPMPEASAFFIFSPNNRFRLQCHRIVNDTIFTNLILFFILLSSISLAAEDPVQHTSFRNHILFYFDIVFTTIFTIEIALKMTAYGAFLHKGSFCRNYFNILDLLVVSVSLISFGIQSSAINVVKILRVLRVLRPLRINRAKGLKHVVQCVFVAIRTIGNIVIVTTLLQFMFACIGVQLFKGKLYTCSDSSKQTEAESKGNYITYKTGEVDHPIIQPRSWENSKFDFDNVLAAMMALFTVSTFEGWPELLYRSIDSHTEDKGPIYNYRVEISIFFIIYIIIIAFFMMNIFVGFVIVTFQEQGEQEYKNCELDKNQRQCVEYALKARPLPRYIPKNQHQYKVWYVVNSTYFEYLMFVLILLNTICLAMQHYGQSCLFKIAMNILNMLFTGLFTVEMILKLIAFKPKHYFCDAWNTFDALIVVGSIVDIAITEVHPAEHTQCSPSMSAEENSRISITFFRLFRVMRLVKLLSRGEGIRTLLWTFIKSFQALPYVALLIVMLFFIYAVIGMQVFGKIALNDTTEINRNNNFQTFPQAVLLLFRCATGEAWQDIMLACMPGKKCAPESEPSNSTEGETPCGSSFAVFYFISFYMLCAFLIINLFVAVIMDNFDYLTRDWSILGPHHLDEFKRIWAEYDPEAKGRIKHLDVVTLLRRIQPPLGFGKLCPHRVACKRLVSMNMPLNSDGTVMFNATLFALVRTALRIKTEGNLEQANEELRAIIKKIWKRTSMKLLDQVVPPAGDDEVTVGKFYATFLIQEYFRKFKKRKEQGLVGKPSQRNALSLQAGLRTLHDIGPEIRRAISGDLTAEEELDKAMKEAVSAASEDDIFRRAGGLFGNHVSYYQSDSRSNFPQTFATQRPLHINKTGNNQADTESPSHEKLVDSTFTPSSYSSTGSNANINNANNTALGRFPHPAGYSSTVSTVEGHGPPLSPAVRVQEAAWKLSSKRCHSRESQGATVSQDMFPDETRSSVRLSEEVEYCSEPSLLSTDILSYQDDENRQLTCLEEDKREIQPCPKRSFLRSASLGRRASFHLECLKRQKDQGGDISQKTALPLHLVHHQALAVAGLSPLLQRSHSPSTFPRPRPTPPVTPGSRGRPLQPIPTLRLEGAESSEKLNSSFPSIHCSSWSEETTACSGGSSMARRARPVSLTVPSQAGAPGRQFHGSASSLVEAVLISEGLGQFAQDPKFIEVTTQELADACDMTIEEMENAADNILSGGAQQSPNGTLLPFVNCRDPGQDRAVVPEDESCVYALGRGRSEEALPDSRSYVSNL
Chain of Cannabinoid receptor 2 (Homo sapiens) (P34972 whole entry): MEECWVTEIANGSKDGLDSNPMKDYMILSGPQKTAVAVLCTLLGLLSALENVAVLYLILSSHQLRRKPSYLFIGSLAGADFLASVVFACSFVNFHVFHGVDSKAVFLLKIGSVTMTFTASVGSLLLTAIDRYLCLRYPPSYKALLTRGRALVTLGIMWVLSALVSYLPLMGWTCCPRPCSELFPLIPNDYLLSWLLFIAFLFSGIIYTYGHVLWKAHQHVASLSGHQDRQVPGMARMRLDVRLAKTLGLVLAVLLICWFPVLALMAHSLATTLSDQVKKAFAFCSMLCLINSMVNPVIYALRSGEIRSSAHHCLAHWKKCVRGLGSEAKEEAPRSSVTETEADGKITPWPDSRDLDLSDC
Chain of D(2) dopamine receptor (Homo sapiens) (P14416 whole entry): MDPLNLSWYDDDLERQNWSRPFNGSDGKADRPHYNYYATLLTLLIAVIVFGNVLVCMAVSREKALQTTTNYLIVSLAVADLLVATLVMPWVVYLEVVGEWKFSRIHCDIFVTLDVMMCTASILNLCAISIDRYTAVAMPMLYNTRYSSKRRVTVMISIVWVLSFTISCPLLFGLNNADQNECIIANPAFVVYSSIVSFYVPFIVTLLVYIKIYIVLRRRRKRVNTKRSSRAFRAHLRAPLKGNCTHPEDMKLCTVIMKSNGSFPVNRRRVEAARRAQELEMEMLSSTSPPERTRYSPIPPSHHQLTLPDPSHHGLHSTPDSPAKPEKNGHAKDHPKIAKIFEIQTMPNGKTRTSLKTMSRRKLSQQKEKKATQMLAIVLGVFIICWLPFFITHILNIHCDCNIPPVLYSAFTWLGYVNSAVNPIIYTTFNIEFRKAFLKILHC
Chain of Kappa-type opioid receptor (Homo sapiens) (P41145 whole entry): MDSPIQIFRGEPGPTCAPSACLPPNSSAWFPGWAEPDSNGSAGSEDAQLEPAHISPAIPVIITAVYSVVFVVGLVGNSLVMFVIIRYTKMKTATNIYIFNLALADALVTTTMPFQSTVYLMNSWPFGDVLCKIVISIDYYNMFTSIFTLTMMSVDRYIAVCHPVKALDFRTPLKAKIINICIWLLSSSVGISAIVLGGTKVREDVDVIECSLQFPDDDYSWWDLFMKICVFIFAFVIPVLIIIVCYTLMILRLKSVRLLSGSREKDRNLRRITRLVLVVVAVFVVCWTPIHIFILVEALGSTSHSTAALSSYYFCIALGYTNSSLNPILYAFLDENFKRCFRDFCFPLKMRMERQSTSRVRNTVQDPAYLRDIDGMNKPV
Chain of 3',5'-cyclic-AMP phosphodiesterase 4D (Homo sapiens) (Q08499 whole entry): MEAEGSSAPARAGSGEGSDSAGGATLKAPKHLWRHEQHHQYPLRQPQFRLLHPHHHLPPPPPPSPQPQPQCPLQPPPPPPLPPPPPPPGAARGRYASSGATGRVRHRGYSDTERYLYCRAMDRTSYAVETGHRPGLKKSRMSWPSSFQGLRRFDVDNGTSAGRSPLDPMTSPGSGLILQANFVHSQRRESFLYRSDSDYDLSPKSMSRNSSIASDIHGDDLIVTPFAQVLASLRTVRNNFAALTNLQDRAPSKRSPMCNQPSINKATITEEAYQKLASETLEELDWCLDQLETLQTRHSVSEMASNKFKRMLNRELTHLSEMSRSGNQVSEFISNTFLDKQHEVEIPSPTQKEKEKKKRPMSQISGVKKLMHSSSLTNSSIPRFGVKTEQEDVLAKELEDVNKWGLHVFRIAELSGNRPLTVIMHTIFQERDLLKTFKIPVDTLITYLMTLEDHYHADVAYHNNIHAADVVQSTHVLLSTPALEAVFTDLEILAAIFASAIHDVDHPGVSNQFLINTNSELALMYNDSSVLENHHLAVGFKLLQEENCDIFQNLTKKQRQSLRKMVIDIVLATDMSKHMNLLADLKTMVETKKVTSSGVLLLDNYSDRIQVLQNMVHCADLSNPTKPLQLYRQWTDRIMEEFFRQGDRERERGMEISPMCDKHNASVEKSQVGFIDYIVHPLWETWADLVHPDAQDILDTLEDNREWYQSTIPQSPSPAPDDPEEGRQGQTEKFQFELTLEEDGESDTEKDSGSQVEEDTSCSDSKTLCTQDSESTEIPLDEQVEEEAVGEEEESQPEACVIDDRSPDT
Chain of Glucocorticoid receptor (Homo sapiens) (P04150 whole entry): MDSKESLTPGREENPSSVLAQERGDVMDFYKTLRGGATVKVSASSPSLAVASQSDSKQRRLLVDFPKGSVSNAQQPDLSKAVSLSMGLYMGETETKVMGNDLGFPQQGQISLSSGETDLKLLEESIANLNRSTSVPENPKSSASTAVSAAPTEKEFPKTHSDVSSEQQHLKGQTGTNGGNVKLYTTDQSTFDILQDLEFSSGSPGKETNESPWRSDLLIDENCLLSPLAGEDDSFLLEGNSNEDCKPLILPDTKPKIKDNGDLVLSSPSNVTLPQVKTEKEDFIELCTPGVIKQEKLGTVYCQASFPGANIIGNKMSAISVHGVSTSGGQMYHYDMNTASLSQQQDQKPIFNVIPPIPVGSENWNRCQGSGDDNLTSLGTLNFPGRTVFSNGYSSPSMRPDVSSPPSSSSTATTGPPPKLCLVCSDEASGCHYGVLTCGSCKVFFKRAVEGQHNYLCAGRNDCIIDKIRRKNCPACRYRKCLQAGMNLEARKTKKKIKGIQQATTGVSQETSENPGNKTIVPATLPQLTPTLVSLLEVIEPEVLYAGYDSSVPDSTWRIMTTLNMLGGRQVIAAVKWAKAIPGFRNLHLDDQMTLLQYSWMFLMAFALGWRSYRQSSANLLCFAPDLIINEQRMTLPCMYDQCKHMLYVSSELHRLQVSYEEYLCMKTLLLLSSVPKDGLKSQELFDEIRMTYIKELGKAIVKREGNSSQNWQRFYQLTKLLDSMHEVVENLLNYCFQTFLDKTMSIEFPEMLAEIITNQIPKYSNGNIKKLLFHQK

COc1cc(C)c(S(=O)(=O)N(C)CCC(=O)N[C@H]2CC[C@@H](N3CCC4CN(C)CC4C3)CC2)c(C)c1 (stereo not given in full)
inactive: residual activity [1] 92% | residual activity [2] 137% | residual activity [3] 85% | residual activity [4] 98% | residual activity [6] 99% | residual activity [7] 108% | residual activity [8] 81% | residual activity [9] 93% | residual activity [10] 124% | residual activity [11] 97% | residual activity [12] 91% | residual activity [13] 90% | residual activity [14] 97% | residual activity [15] 101% | residual activity (Rattus norvegicus [16]) 105% | residual activity [18] 106% | residual activity [19] 85% | residual activity [20] 94% | residual activity [21] 97% | residual activity [22] 98% | residual activity [23] 87% | residual activity [24] 109% | residual activity [25] 102% | residual activity [26] 104% | residual activity [27] 113% | residual activity (Rattus norvegicus [28]) 98% | residual activity [29] 94% | residual activity [30] 89% | residual activity [31] 67% | residual activity [32] 92% | residual activity [34] 96% | residual activity [35] 93% | residual activity [36] 112% | residual activity (Homo sapiens) 98% | residual activity [37] 105% | residual activity [38] 104% | residual activity [39] 103% | residual activity [40] 87% | residual activity [43] 90%
active: residual activity [5] 42%
431 nM (not active): Ki (B1 bradykinin receptor [41])
106% (not active): activity at 10 µM [33]
699 nM (not active): IC50 (B1 bradykinin receptor [42])
63% (not active): activity at 10 µM (hERG (KCNH2))
120% (not active): activity at 10 µM [17]
